In paper PMC6667648 (Frontiers in Microbiology, 2019):
In brackets after ≈: the same amount, converted by molar mass. Read-outs that look alike come from different tables or passages of the source.

Tests used:
S. aureus ATCC 29213 = experiment: microbe, parasite or virus in culture; details: for MIC: Staphylococcus aureus
Excerpt: (§1) The development of resistance was confirmed if the microorganism started growing at continuously higher concentrations. […] Evaluations were done in duplicate.

P. aeruginosa ATCC 27853 [1] = experiment: Antibiotic resistance profiling, 30 serial passages; assay type: cell-based, Pseudomonas aeruginosa; details: for MIC: Pseudomonas aeruginosa
Excerpt: as §1

K. pneumonia 6066 = experiment: microbe, parasite or virus in culture; assay type: cell-based, Klebsiella pneumoniae
Method: (§2) Strains were obtained from American Type Culture Collection (ATCC, Manassas, VA) or the clinical isolate collection at Trideum Biosciences (Frederick, MD, USA). Bioluminescence strains of P. aeruginosa 19660, transfected with the Xen5 luciferase gene, and S. aureus ATCC® 49525™ (Wright), transfected with the Xen36 luciferase gene, were obtained from Perkin Elmer (Hopkinton, MA).
(§3) A single colony was aseptically picked from an agar overlay and released in 25–30 mL of pre-warmed trypticase soy broth in a culture flask. Each culture was incubated overnight in a 37°C incubator. […] Pathogen growth was measured by absorbance at 600 nm. Four replicas were included for each test agent concentration. […]

K. pneumonia 6069 = experiment: microbe, parasite or virus in culture; assay type: cell-based, Klebsiella pneumoniae
Method: as §2, §3

K. pneumonia ATCC 10031 = experiment: microbe, parasite or virus in culture; assay type: cell-based, Klebsiella pneumoniae
Method: as §2, §3

S. aureus 6061 = experiment: microbe, parasite or virus in culture; assay type: cell-based, Staphylococcus aureus
Method: as §2, §3

MRSA 6313 = experiment: microbe, parasite or virus in culture; assay type: cell-based, Staphylococcus aureus
Method: as §2, §3

MRSA ATCC 33592 = experiment: microbe, parasite or virus in culture; assay type: cell-based, Staphylococcus aureus
Method: as §2, §3

MRSA 6381 = experiment: microbe, parasite or virus in culture; assay type: cell-based, Staphylococcus aureus
Method: as §2, §3

S. aureus B-767 = experiment: microbe, parasite or virus in culture; assay type: cell-based, Staphylococcus aureus
Method: as §2, §3

S. epidermis ATCC 51625 = experiment: microbe, parasite or virus in culture; assay type: cell-based, S. epidermidis
Method: as §2, §3

E. cloacae 6053 = experiment: microbe, parasite or virus in culture; assay type: cell-based
Method: as §2, §3

E. cloacae 6054 = experiment: microbe, parasite or virus in culture; assay type: cell-based
Method: as §2, §3

A. baumannii ATCC 17978 = experiment: microbe, parasite or virus in culture; assay type: cell-based, Acinetobacter baumannii; details: Acinetobacter baumannii, ATCC17978, 24 h, read-out: Minimum Inhibitory Concentration (MIC)
Method: as §2, §3

A. baumannii 6838 = experiment: microbe, parasite or virus in culture; assay type: cell-based, Acinetobacter baumannii
Method: as §2, §3

A. baumannii 6043 = experiment: microbe, parasite or virus in culture; assay type: cell-based, Acinetobacter baumannii
Method: as §2, §3

[2] = tested on: bioluminescent S. aureus 49525; experiment: Bioluminescence time-kill assay; assay type: cell-based, Staphylococcus aureus; details: antibiotics after 30 min incubation, triplicates, two independent experiments
Method: as §2
(§4) Non-invasive real-time evaluation of viability, mammalian, and bacterial cells, was performed using bioluminescent human keratinocytes (HaCaT, AddexBio, San Diego, CA) and murine L929 fibroblast cells (ATCC, Manassas, VA). The bioluminescent variants were constructed by transfection with a luciferase gene (RediFect Red-Fluc-Puromycin, Catalog #CL596002) (Hamblin et al., [2003]). […] Each concentration was performed in triplicate. Bioluminescence imaging was performed at pre-specified times (0, 15, and 30 min and 1, 3, 5, 8, and 24 h) and compared to concurrently run vehicle-controls. The 96-well plate was positioned on the stage (12.5-cm field of view) within the in vivo Imaging System (IVIS) imaging system (Caliper Life Sciences, Inc., Hopkinton, MA, USA), with an open emission filter, binning of 4, and f-stop 1, and a 1-min exposure time. The resultant photons emitted from the live cells were quantified using Living Image® software (version 4.3, Caliper Life Sciences, Inc.). […]

P. aeruginosa 6186 = experiment: microbe, parasite or virus in culture; assay type: cell-based, Pseudomonas aeruginosa
Method: as §2, §3

P. aeruginosa ATCC 27853 [3] = experiment: microbe, parasite or virus in culture; assay type: cell-based, Pseudomonas aeruginosa
Method: as §2, §3

P. aeruginosa ATCC 19660 = experiment: microbe, parasite or virus in culture; assay type: cell-based, Pseudomonas aeruginosa
Method: as §2, §3

[4] = tested on: bioluminescent P. aeruginosa 19660; experiment: Bioluminescence time-kill assay; assay type: cell-based, Pseudomonas aeruginosa; details: antibiotics after 30 min incubation, triplicates, two independent experiments
Method: as §2, §4

[5] = Staphylococcus aureus, MRSA, 24 h, read-out: Minimum Inhibitory Concentration (MIC)

In the case of CCC[C@@H]1C[C@@H](C(=O)N[C@@H]([C@H]2O[C@H](SC)[C@H](O)[C@@H](O)[C@H]2O)[C@H](C)Cl)N(C)C1 [clindamycin], the “Fold increase in MIC value, Passage #30 vs #0” value (S. aureus ATCC 29213; S. aureus ATCC 29213) is reported as 256 fold, the MIC (S. aureus ATCC 29213; ATCC29213, read-out: MIC on Passage #0 and Passage #1) is reported as 0.125 µg/mL (≈ 0.294 µM) and the MIC (S. aureus ATCC 29213; ATCC29213, read-out: MIC on Passage #30) is reported as 32 µg/mL (≈ 75.3 µM).

For CNC(C)C1CCC(N)C(OC2C(N)CC(N)C(OC3OCC(C)(O)C(NC)C3O)C2O)O1 (centres unmarked) [gentamicin], the “Fold increase in MIC value, Passage #30 vs #0” value (P. aeruginosa ATCC 27853 [1]; P. aeruginosa ATCC 27853) was 4,096 fold, the MIC (P. aeruginosa ATCC 27853 [1]; ATCC27853, read-out: MIC during Passage #0 and Passage #1) was 0.125 µg/mL (≈ 0.262 µM) and the MIC (P. aeruginosa ATCC 27853 [1]; ATCC27853, read-out: MIC during Passage #30) was 512 µg/mL (≈ 1070 µM).

CN[C@H](CC(C)C)C(=O)N[C@H]1C(=O)N[C@@H](CC(N)=O)C(=O)N[C@H]2C(=O)N[C@H]3C(=O)N[C@H](C(=O)N[C@H](C(=O)O)c4cc(O)cc(O)c4-c4cc3ccc4O)[C@H](O)c3ccc(c(Cl)c3)Oc3cc2cc(c3O[C@@H]2O[C@H](CO)[C@@H](O)[C@H](O)[C@H]2O[C@H]2C[C@](C)(N)[C@H](O)[C@H](C)O2)Oc2ccc(cc2Cl)[C@H]1O [Vancomycin, vancomycin] gave an MIC (K. pneumonia 6066; Klebsiella pneumoniae, 6066, 24 h, read-out: Minimum Inhibitory Concentration (MIC)) greater than 88.3 µM, an MIC (K. pneumonia 6069; Klebsiella pneumoniae, 6069, 24 h, read-out: Minimum Inhibitory Concentration (MIC)) greater than 88.3 µM and an MIC (K. pneumonia ATCC 10031; Klebsiella pneumoniae, ATCC10031, 24 h, read-out: Minimum Inhibitory Concentration (MIC)) greater than 88.3 µM. It also gave an MIC (S. aureus 6061; Staphylococcus aureus, 6061, 24 h, read-out: Minimum Inhibitory Concentration (MIC)) of 2.1 µM (≈ 3.04 µg/mL), an MIC (MRSA 6313; [5]) of 1.4 µM (≈ 2.03 µg/mL) and an MIC (MRSA ATCC 33592; Staphylococcus aureus, 24 h, read-out: Minimum Inhibitory Concentration (MIC)) of 1.4 µM (≈ 2.03 µg/mL). It also gave an MIC (MRSA 6381; [5]) of 1.4 µM (≈ 2.03 µg/mL), an MIC (S. aureus B-767; Staphylococcus aureus, B767, 24 h, read-out: Minimum Inhibitory Concentration (MIC)) greater than 88.3 µM and an MIC (S. epidermis ATCC 51625; Staphylococcus epidermidis, ATCC51625, 24 h, read-out: Minimum Inhibitory Concentration (MIC)) of 2.1 µM (≈ 3.04 µg/mL). The MIC (E. cloacae 6053; Enterobacter cloacae, 6053, 24 h, read-out: Minimum Inhibitory Concentration (MIC)) was greater than 88.3 µM, the MIC (E. cloacae 6054; Enterobacter cloacae, 6054, 24 h, read-out: Minimum Inhibitory Concentration (MIC)) was greater than 88.3 µM and the MIC (A. baumannii ATCC 17978) was greater than 88.3 µM. For the same compound, the MIC (A. baumannii 6838; Acinetobacter baumannii, 6838, 24 h, read-out: Minimum Inhibitory Concentration (MIC)) was greater than 88.3 µM, the MIC (A. baumannii 6043; Acinetobacter baumannii, 6043, 24 h, read-out: Minimum Inhibitory Concentration (MIC)) was greater than 88.3 µM and the “Bactericidal activity in time-kill assay” value [2] was “no trace of antibacterial activity”. The MIC (P. aeruginosa 6186; Pseudomonas aeruginosa, 6186, 24 h, read-out: Minimum Inhibitory Concentration (MIC)) was greater than 88.3 µM, the MIC (P. aeruginosa ATCC 27853 [3]; Pseudomonas aeruginosa, ATCC27853, 24 h, read-out: Minimum Inhibitory Concentration (MIC)) was greater than 88.3 µM and the MIC (P. aeruginosa ATCC 19660; Pseudomonas aeruginosa, ATCC19660, 24 h, read-out: Minimum Inhibitory Concentration (MIC)) was greater than 88.3 µM. The “Bactericidal activity in time-kill assay” value [4] was “no trace of antibacterial activity”.

CC[C@H](C)[C@H](NC(=O)[C@H](CCCCN)NC(=O)[C@H](CCC(=O)O)NC(=O)[C@H](CCCCN)NC(=O)[C@H](CO)NC(=O)[C@H](CCCCN)NC(=O)[C@H](CCCNC(=N)N)NC(=O)[C@H](Cc1ccccc1)NC(=O)[C@H](Cc1ccccc1)NC(=O)[C@H](CC(=O)O)NC(=O)CNC(=O)[C@H](CC(C)C)NC(=O)[C@@H](N)CC(C)C)C(=O)NCC(=O)N[C@@H](CCCCN)C(=O)N[C@@H](CCC(=O)O)C(=O)N[C@@H](Cc1ccccc1)C(=O)N[C@@H](CCCCN)C(=O)N[C@@H](CCCNC(=N)N)C(=O)N[C@H](C(=O)N[C@H](C(=O)N[C@@H](CCC(N)=O)C(=O)N[C@@H](CCCNC(=N)N)C(=O)N[C@H](C(=O)N[C@@H](CCCCN)C(=O)N[C@@H](CC(=O)O)C(=O)N[C@@H](Cc1ccccc1)C(=O)N[C@@H](CC(C)C)C(=O)N[C@@H](CCCNC(=N)N)C(=O)N[C@@H](CC(N)=O)C(=O)N[C@@H](CC(C)C)C(=O)N[C@H](C(=O)N1CCC[C@H]1C(=O)N[C@@H](CCCNC(=N)N)C(=O)N[C@H](C(=O)N[C@@H](CCC(=O)O)C(=O)N[C@@H](CO)C(=O)O)[C@@H](C)O)C(C)C)[C@@H](C)CC)C(C)C)[C@@H](C)CC [LL-37] was tested, and the “Minimum Inhibitory Concentration (MIC)” value (K. pneumonia 6066; K. pneumonia 6066, 24-h incubation, mean of 3 replicates from 2 independent experiments) was >28.5 [128] μM, the “Minimum Inhibitory Concentration (MIC)” value (K. pneumonia 6069; K. pneumonia 6069, 24-h incubation, mean of 3 replicates from 2 independent experiments) was >28.5 [128] μM and the “Minimum Inhibitory Concentration (MIC)” value (K. pneumonia ATCC 10031; K. pneumonia ATCC 10031, 24-h incubation, mean of 3 replicates from 2 independent experiments) was >28.5 [128] μM. For the same compound, the “Minimum Inhibitory Concentration (MIC)” value (S. aureus 6061; S. aureus 6061, 24-h incubation, mean of 3 replicates from 2 independent experiments) was >28.5 [128] μM, the “Minimum Inhibitory Concentration (MIC)” value (MRSA 6313; MRSA 6313, 24-h incubation, mean of 3 replicates from 2 independent experiments) was >28.5 [128] μM and the “Minimum Inhibitory Concentration (MIC)” value (MRSA ATCC 33592; MRSA ATCC 33592, 24-h incubation, mean of 3 replicates from 2 independent experiments) was >28.5 [128] μM. For the same compound, the “Minimum Inhibitory Concentration (MIC)” value (MRSA 6381; MRSA 6381, 24-h incubation, mean of 3 replicates from 2 independent experiments) was >28.5 [128] μM, the “Minimum Inhibitory Concentration (MIC)” value (S. aureus B-767; S. aureus B-767, 24-h incubation, mean of 3 replicates from 2 independent experiments) was >28.5 [128] μM and the “Minimum Inhibitory Concentration (MIC)” value (S. epidermis ATCC 51625; S. epidermis ATCC 51625, 24-h incubation, mean of 3 replicates from 2 independent experiments) was >28.5 [128] μM. For the same compound, the “Minimum Inhibitory Concentration (MIC)” value (E. cloacae 6053; E. cloacae 6053, 24-h incubation, mean of 3 replicates from 2 independent experiments) was >28.5 [128] μM, the “Minimum Inhibitory Concentration (MIC)” value (E. cloacae 6054; E. cloacae 6054, 24-h incubation, mean of 3 replicates from 2 independent experiments) was >28.5 [128] μM and the “Minimum Inhibitory Concentration (MIC)” value (A. baumannii 6838; A. baumannii 6838, 24-h incubation, mean of 3 replicates from 2 independent experiments) was >28.5 [128] μM. The “Minimum Inhibitory Concentration (MIC)” value (A. baumannii 6043; A. baumannii 6043, 24-h incubation, mean of 3 replicates from 2 independent experiments) was 14.2 [64] μM, the “Minimum Inhibitory Concentration (MIC)” value (P. aeruginosa 6186; P. aeruginosa 6186, 24-h incubation, mean of 3 replicates from 2 independent experiments) was >28.5 [128] μM and the “Minimum Inhibitory Concentration (MIC)” value (P. aeruginosa ATCC 27853 [3]; P. aeruginosa ATCC 27853, 24-h incubation, mean of 3 replicates from 2 independent experiments) was 28.5 [128] μM. For the same compound, the “Minimum Inhibitory Concentration (MIC)” value (P. aeruginosa ATCC 19660; P. aeruginosa ATCC 19660, 24-h incubation, mean of 3 replicates from 2 independent experiments) was 28.5 [128] μM.
